Results published in publication PMC8713167, “New Insights into the Structure–Activity Relationship and Neuroprotective Profile of Benzodiazepinone Derivatives of Neurounina-1 as Modulators of the Na^+/Ca^2+ Exchanger Isoforms” (Journal of Medicinal Chemistry, 2021).

How the values were obtained:
[1] = system: rat primary cortical neurons; assay: Cell viability (MTT) of primary cortical neurons exposed to OGD followed by RX; type: cell-based; conditions: for Neuroprotection in cortical neurons exposed to OGD + RX (in words): added during OGD and RX, 1 at 10 nM, 14 at 10 μM
Experimental: Once identified as NCX activity modulators, compounds 1, 4, and 14 were tested on cell viability of primary rat cortical neurons exposed to OGD followed by RX, an experimental condition mimicking hypoxic conditions occurring during stroke. These compounds were added during either OGD or RX phases at the corresponding median effective concentration for their NCX stimulating or inhibiting activity.
Rat cortical neurons were prepared and grown as previously reported.[22],[23] During the exposure to hypoxic conditions, primary cortical neurons at 7/10 DIV were incubated with different concentrations of each previously identified compound. Italian Ministry of Health and the local Animal Care Committee of “Federico II” University of Naples (Italy) approved all animal procedures adopted (D. Lgs. March 4th, 2014 from Italian Ministry of Health; DIR 210/63 UE; 12/2018-UT7).
Hypoxic conditions were induced by exposing rat primary cortical neurons to a oxygen- and glucose-free medium in a humidified atmosphere containing 95% nitrogen and 5% CO2, as previously reported.[22],[23] Cell injury was assessed by MTT analysis. Briefly, neurons were incubated with 1 mL of MTT solution (0.5 mg/mL in PBS). After 1 h of incubation at 37 °C, neurons were dissolved in dimethyl sulfoxide and the rate of MTT variation was measured spectrophotometrically at the wavelength of 540 nm.[22],[57]

NCX1 [2] = target: T1, NCX1 (Canis lupus familiaris, UniProt P23685); assay: Single-cell Fura-2AM video-imaging, Na+-free-induced [Ca2+]i increase in BHK-NCX1 cells; type: cell-based, dog; conditions: for Fura2-experiments on BHK-NCX1 (dose/effect) / Fura2-experiments on BHK-NCX1 (dose/effect), inhibition: Na+-free-induced [Ca2+]i increase, reverse mode
T1 construct: expressed in transfected cells; host or cells: BHK (baby hamster kidney) cells, stably transfected
Experimental: Furthermore, NCX activity in the reverse mode of operation was also studied on single cell by Fura-2AM video-imaging in BHK-NCX1 and BHK-NCX3 cells (Figures 3 and 4). […] Furthermore, patch-clamp electrophysiology in the whole-cell configuration was used to measure NCX activity both in the forward and reverse mode of operation.
[Ca^2+]i was measured by single-cell computer-assisted video-imaging using Fura-2 acetoxymethyl ester (Fura-2AM). Neurons were loaded with Fura 2AM (10 μM for 30′ at 37 °C). Experiments were carried out with a MicroMax 512BFT cooled CCD camera (Princeton Instruments, Trenton, NJ, USA), LAMBDA 10-2 filter wheeler (Sutter Instruments, Novato, CA), and Meta-Morph/MetaFluor Imaging System software (Universal Imaging, West Chester, PA). Fura-2 fluorescence intensity was measured every 3 s. From each coverslip, 40–60 individual cells were selected and monitored simultaneously. Assuming that the KD for FURA-2 was 224 nM, the equation of Grynkiewicz was used to for calibration.[58]
The NCX reverse mode was determined by switching the normal Krebs medium to Na^+-deficient NMDG+ medium (Na^+-free), as previously reported.[57]
Compounds were solubilized in dimethyl sulfoxide at concentrations of 1 mM, and stock solutions were kept at −20 °C. Appropriate drug dilutions were prepared daily. Statistical analysis was performed with two-way ANOVA, followed by the Newman–Keuls test. Statistical significance was accepted at the 95% confidence level (p < 0.05). Values are expressed as means ± SEM. To obtain EC50’s of newly synthesized compounds and IC50 of compound 4, all data were fitted to the following binding isotherm: […], where X is the drug concentration and n is the Hill coefficient.

primary cortical neurons = assay: Cell viability (MTT) of primary cortical neurons exposed to chemical hypoxia followed by RX; type: cell-based, rat
Experimental: Considering that this represents a more demanding experimental paradigm, compound 1 may be considered an interesting tool with a neuroprotective profile. In fact, its neuroprotective effect in cortical neurons exposed to hypoxic conditions was similar to that produced by ischemic PC,[30],[31] a short stimulus inducing ischemic tolerance in neurons (Figure 6B). Furthermore, to better investigate the neuroprotective profile of compound 1, it was tested in primary cortical neurons exposed to chemical hypoxia, followed by RX, a detrimental condition undermining the mitochondrial function. […] However, the specific role of each mode of operation in the neuroprotective effect remains obscure and very difficult to define in this experimental paradigm. […] Therefore, the excessive activation of the NCX3 forward mode determining Ca^2+ extrusion may negatively counterbalance the activation of its reverse mode, favoring Ca^2+ entrance.
Rat cortical neurons were prepared and grown as previously reported.[22],[23] […]
Chemical hypoxia was reproduced by exposing primary cortical neurons for 45 min to a glucose-free medium containing oligomycin (5 μg/mL) plus 2-DG (2 mM), followed by RX (3 h). […] Cell injury was assessed by MTT analysis at the end of each experiment.

NCX1 [3] = target: T1, NCX1; assay: Whole-cell patch-clamp electrophysiology of INCX in BHK-NCX1 cells; type: cell-based, dog; conditions: CTL100; for Patch-clamp-experiments on BHK-NCX1, forward mode: forward mode (−120 mV); for Patch-clamp-experiments on BHK-NCX1, reverse mode: reverse mode (+60 mV)
NCX3 [4] = target: T2, NCX3 (Rattus norvegicus, UniProt P70549); assay: High-throughput screening of NCX3 reverse mode, Fluo-4-loaded BHK-NCX3 cells, Na+-free pulse; type: cell-based; conditions: CTL (100), concentration not given (10 nM and 10 μM screened)
T2 construct: expressed in transfected cells; host or cells: BHK (baby hamster kidney) cells, stably transfected

NCX1 [5] = target: T1, NCX1; assay: High-throughput screening of NCX1 reverse mode, Fluo-4-loaded BHK-NCX1 cells, Na+-free pulse; type: cell-based, dog; conditions: for Effect on NCX1 activity in the reverse mode (screening, in words): BHK-NCX1, 10 nM and 10 μM; for Fluo-experiments on BHK-NCX1: NCX1 reverse mode, Na+-free, CTL (100), concentration not given (10 nM and 10 μM screened)
NCX3 [6] = target: T2, NCX3; assay: Whole-cell patch-clamp electrophysiology of INCX in BHK-NCX3 cells; type: cell-based; conditions: compound 4 at 10 μM (Figures 5B and S1)
NCX3 [7] = target: T2, NCX3; assay: Single-cell Fura-2AM video-imaging, Na+-free-induced [Ca2+]i increase in BHK-NCX3 cells; type: cell-based

T2 sequence (P70549 31-927): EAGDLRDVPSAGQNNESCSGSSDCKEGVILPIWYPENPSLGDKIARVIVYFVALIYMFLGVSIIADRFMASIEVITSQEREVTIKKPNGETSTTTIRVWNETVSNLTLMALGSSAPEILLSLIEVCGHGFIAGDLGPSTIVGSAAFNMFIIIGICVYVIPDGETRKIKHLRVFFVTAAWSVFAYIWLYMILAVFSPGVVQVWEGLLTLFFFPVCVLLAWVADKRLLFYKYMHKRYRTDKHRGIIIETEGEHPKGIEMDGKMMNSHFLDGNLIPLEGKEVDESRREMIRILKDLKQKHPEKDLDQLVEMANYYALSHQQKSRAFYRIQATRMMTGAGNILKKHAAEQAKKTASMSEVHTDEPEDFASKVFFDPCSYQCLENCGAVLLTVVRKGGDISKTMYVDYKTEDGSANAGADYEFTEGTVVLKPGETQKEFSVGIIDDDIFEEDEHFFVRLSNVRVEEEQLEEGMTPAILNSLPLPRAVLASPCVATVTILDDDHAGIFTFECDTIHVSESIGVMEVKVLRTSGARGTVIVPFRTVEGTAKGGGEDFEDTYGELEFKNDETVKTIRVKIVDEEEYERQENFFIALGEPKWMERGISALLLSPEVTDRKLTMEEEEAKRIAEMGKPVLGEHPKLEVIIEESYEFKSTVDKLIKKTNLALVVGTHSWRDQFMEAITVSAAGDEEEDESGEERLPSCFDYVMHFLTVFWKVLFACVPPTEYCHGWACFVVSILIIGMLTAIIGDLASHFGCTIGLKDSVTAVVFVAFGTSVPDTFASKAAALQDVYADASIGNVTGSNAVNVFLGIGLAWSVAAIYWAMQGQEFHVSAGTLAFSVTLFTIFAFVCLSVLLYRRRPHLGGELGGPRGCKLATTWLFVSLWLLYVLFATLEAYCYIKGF

Q: What does the source list for `O=C1CN=C(c2ccccc2Cl)c2cc([N+](=O)[O-])ccc2N1CN1CCCC1` [Compound 1, 5-(2-Chlorophenyl)-7-nitro-1-(pyrrolidin-1-ylmethyl)-1H-benzo[e][1,4]diazepin-2(3H)-one]?
A: Neuroprotection in cortical neurons exposed to OGD + RX (in words) [1]: showed a neuroprotective profile; Neuroprotection: cell viability after OGD + RX ([1]; compound 10 nM added during OGD and RX, OGDrx alone 57, normoxic control 100): 71±0.8 % of control; Neuroprotection when preincubated and removed during OGD and RX (in words) ([1]; preincubated, then removed during OGD + RX): continued to protect neurons from hypoxic conditions; Fura2-experiments on BHK-NCX1 (dose/effect) (NCX1 [2]; 1nM): 120±1.3 % of controls; Fura2-experiments on BHK-NCX1 (dose/effect) (NCX1 [2]; 10nM): 178±2.3 % of controls; Fura2-experiments on BHK-NCX1 (dose/effect) (NCX1 [2]; 10µM): 190±2.1 % of controls; Neuroprotection: cell viability after chemical hypoxia + RX (primary cortical neurons; compound 10 nM during chemical hypoxia (45 min) and RX (3 h), chemical Hyp alone 34, control 100): 46±1.5 % of control; Neuroprotection in cortical neurons exposed to chemical hypoxia + RX (in words) (primary cortical neurons; compound 1 at 10 nM): significantly reduced cell suffering; Patch-clamp-experiments on BHK-NCX1, forward mode (NCX1 [3]): 206±2%; Patch-clamp-experiments on BHK-NCX1, reverse mode (NCX1 [3]): 305±3%; Fluo-experiments on BHK-NCX3 (NCX3 [4]): 100; Effect on NCX1 activity in the reverse mode (screening, in words) (NCX1 [5]): selective NCX1 activator; Fluo-experiments on BHK-NCX1 (NCX1 [5]): 128±1.3

Q: With `O=C1CN=C(c2ccccc2)c2cc([N+](=O)[O-])ccc2N1CCN1CCCC1` [Compound 4, 7-Nitro-5-phenyl-1-[2-(pyrrolidin-1-yl)ethyl]-1H-benzo[e][1,4]diazepin-2(3H)-one] as the molecule, how does the IC50 (NCX1 [2]) read?
A: 10000 nM

Q: What about the “Fura2-experiments on BHK-NCX1 (dose/effect), inhibition” value (NCX1 [2]; 1nM) of the same molecule?
A: 98±1.3 % of controls

Q: And the “Fura2-experiments on BHK-NCX1 (dose/effect), inhibition” value (NCX1 [2]; 10nM)?
A: 97±0.3 % of controls

Q: What about the “Fura2-experiments on BHK-NCX1 (dose/effect), inhibition” value (NCX1 [2]; 10µM) of the same molecule?
A: 41±2.1 % of controls

Q: And the “Fura2-experiments on BHK-NCX1 (dose/effect), inhibition” value (NCX1 [2]; 30µM)?
A: 9±0.5 % of controls

Q: And the “Effect on NCX activity in BHK-NCX3 cells (in words)” value (NCX3 [6])?
A: failed to modulate

Q: And the melting point?
A: 70 to 71 °C

Q: And the “Patch-clamp-experiments on BHK-NCX1, forward mode” value (NCX1 [3]; compound 4 at 10 μM (Figure 5))?
A: 85±2.1

Q: What about the “Patch-clamp-experiments on BHK-NCX1, reverse mode” value (NCX1 [3]; compound 4 at 10 μM (Figure 5)) of the same molecule?
A: 58±1.1

Q: What about the “Fluo-experiments on BHK-NCX3” value (NCX3 [4]) of the same molecule?
A: 100

Q: And the “Effect on NCX1 activity in the reverse mode (screening, in words)” value (NCX1 [5])?
A: selective NCX1 inhibitor

Q: And the “Fluo-experiments on BHK-NCX1” value (NCX1 [5])?
A: 80±2

Q: With `CC1CCCCN1C(=O)CN1C(=O)CN=C(c2ccccc2)c2cc([N+](=O)[O-])ccc21` (stereo not shown) [Compound 14, 1-[2-(2-Methylpiperidin-1-yl)-2-oxoethyl]-7-nitro-5-phenyl-1H-benzo[e][1,4]-diazepin-2(3H)-one] as the molecule, how does the “Neuroprotection in cortical neurons exposed to OGD + RX (in words)” value [1] read?
A: lack of neuroprotection

Q: What about the EC50 (NCX3 [7]) of the same molecule?
A: 2000 nM

Q: And the EC50 (NCX1 [2])?
A: 3.5 nM
